Measured values as given in patent publication US20070128217A1 (priority 2003, published 2007).

Assays:
[1] = test system: rabbit serum obtained by immunizing a rabbit with the SARS-CoV strain Frankfurt 1; format: binding; design: Binding of a rabbit serum to linear peptides / Binding of a rabbit serum to looped peptides / Rabbit serum linear peptides / Rabbit serum looped peptides / Binding of a rabbit serum to linear peptides of protein N of SARS-CoV Urbani (Rabbit serum linear peptides) / Binding of a rabbit serum to looped/cyclic peptides of protein N of SARS-CoV Urbani (Rabbit serum looped peptides): unit not given here
[2] = test system: recombinant human anti-SARS-CoV antibody 03-018; format: binding; design: Binding of antibody 03-018 to linear peptides of the N protein of SARS-CoV Urbani / Binding of antibody 03-018 to looped/cyclic peptides of the N protein of SARS-CoV Urbani: unit not given here
[3] = test system: antibodies in sera from SARS patients (sera 1a, 1b, 2, 6, 37, 62, London, SARS-yellow, SARS-green); format: binding, human; design: Binding of serum 6 to linear peptides of protein X1 of SARS-CoV Urbani / Binding of serum 37 to linear peptides of protein X1 of SARS-CoV Urbani / Binding of serum 6 to looped/cyclic peptide (PEPSCAN-ELISA) / Binding of serum 37 to looped/cyclic peptide (PEPSCAN-ELISA) / Binding of serum 37 to looped/cyclic peptides of protein X1 of SARS-CoV Urbani / Binding of serum 6 to linear peptides of protein X2 / Binding of serum 37 to linear peptides of protein X2 / Binding of serum 37 to looped/cyclic peptides of protein X2 of SARS-CoV Urbani / Binding of serum 6 to linear peptides of protein M of SARS-CoV Urbani / Binding of serum 37 to linear peptides of protein M of SARS-CoV Urbani / Binding of serum 6 to looped/cyclic peptides of protein M of SARS-CoV Urbani / Binding of serum 37 to looped/cyclic peptides of protein M of SARS-CoV Urbani / Binding of serum 6 to linear peptides of protein X3 of SARS-CoV Urbani / Binding of serum 37 to linear peptides of protein X3 of SARS-CoV Urbani / Binding of serum 37 to looped/cyclic peptides of protein X3 of SARS-CoV Urbani / Binding of serum 6 to linear peptides of protein X4 of SARS-CoV Urbani / Binding of serum 37 to linear peptides of protein X4 of SARS-CoV Urbani / Binding of serum 37 to looped/cyclic peptides of protein X4 of SARS-CoV Urbani / Binding of serum 6 to linear peptides of protein X5 of SARS-CoV Urbani / Binding of serum 37 to linear peptides of protein X5 of SARS-CoV Urbani / Binding of serum 37 to looped/cyclic peptides of protein X5 of SARS-CoV Urbani / Binding of serum 6 to linear peptides of protein N of SARS-CoV Urbani / Binding of serum 37 to linear peptides of protein N of SARS-CoV Urbani / Binding of serum 6 to linear peptide (PEPSCAN-ELISA) / Binding of serum 1a to looped/cyclic peptides of protein N of SARS-CoV Urbani / Binding of serum 1b to looped/cyclic peptides of protein N of SARS-CoV Urbani / Binding of serum 2 to looped/cyclic peptides of protein N of SARS-CoV Urbani / Binding of serum 6 to looped/cyclic peptides of protein N of SARS-CoV Urbani / Binding of serum 37 to looped/cyclic peptides of protein N of SARS-CoV Urbani / Binding of serum 62 to looped/cyclic peptides of protein N of SARS-CoV Urbani / Binding of serum London to looped/cyclic peptides of protein N of SARS-CoV Urbani / Binding of serum SARS-green to looped/cyclic peptides of protein N of SARS-CoV Urbani: unit not given here
[4] = test system: control sera (pooled serum of ten healthy LUMC hospital workers; commercial negative donor pooled serum from the Dutch bloodbank); format: binding, human; design: Binding of Control serum LUMC to linear peptides / Binding of Control serum Blood-bank to linear peptides / Binding of Control serum LUMC to looped peptides / Binding of Control Serum Blood-Bank to Looped peptides / Binding of Control serum LUMC to linear peptides of the protein M of SARS-CoV Urbani / Binding of Control serum Blood-bank to linear peptides of the protein M of SARS-CoV Urbani / Binding of Control serum LUMC to looped peptides of the protein M of SARS-CoV Urbani / Binding of Control Serum Blood-Bank to Looped peptides of the protein M of SARS-CoV Urbani: unit not given here

DDKDPQFKDNVILLN
Binding of a rabbit serum to linear peptides of protein N of SARS-CoV Urbani (Rabbit serum linear peptides) [1]: 0.1 | Binding of a rabbit serum to looped/cyclic peptides of protein N of SARS-CoV Urbani (Rabbit serum looped peptides) [1]: 0.4 | Binding of antibody 03-018 to linear peptides of the N protein of SARS-CoV Urbani [2]: 0.1 | Binding of antibody 03-018 to looped/cyclic peptides of the N protein of SARS-CoV Urbani [2]: 0.3

TVLQLPQGTTLPKGF
Binding of a rabbit serum to linear peptides of protein N of SARS-CoV Urbani (Rabbit serum linear peptides) [1]: 0.3 | Binding of a rabbit serum to looped/cyclic peptides of protein N of SARS-CoV Urbani (Rabbit serum looped peptides) [1]: 1.2 | Binding of antibody 03-018 to linear peptides of the N protein of SARS-CoV Urbani [2]: 0.1 | Binding of antibody 03-018 to looped/cyclic peptides of the N protein of SARS-CoV Urbani [2]: 0.3

GSSRGNSPARMASGG
Recognition of the peptide by the rabbit serum [1]: recognized | Binding of serum 1a to linear peptide (PEPSCAN-ELISA) [3]: 0.4 | Binding of serum 1a to looped/cyclic peptides of protein N of SARS-CoV Urbani [3]: 0.4 | Binding of serum 1b to linear peptide (PEPSCAN-ELISA) [3]: 0.2 | Binding of serum 1b to looped/cyclic peptides of protein N of SARS-CoV Urbani [3]: 0.3 | Binding of serum 2 to linear peptide (PEPSCAN-ELISA) [3]: 0.2 | Binding of serum 2 to looped/cyclic peptides of protein N of SARS-CoV Urbani [3]: 0.7 | Binding of serum 6 to linear peptide (PEPSCAN-ELISA) [3]: 0.2 | Binding of serum 6 to looped/cyclic peptides of protein N of SARS-CoV Urbani [3]: 0.4 | Binding of serum 37 to linear peptide (PEPSCAN-ELISA) [3]: 0.5 | Binding of serum 37 to looped/cyclic peptides of protein N of SARS-CoV Urbani [3]: 0.6 | Binding of serum 62 to linear peptide (PEPSCAN-ELISA) [3]: 0.7 | Binding of serum 62 to looped/cyclic peptides of protein N of SARS-CoV Urbani [3]: 0.6 | Binding of serum London to linear peptide (PEPSCAN-ELISA) [3]: 0.5 | Binding of serum London to looped/cyclic peptides of protein N of SARS-CoV Urbani [3]: 0.9 | Binding of serum SARS-green to linear peptide (PEPSCAN-ELISA) [3]: 0.8 | Binding of serum SARS-green to looped/cyclic peptides of protein N of SARS-CoV Urbani [3]: 0.7 | Binding of serum SARS-yellow to linear peptide (PEPSCAN-ELISA) [3]: 0.7 | Binding of serum SARS-yellow to looped/cyclic peptides of protein N of SARS-CoV Urbani [3]: 0.5 | Binding of antibody 03-018 to linear peptides of the N protein of SARS-CoV Urbani [2]: 0.1 | Binding of antibody 03-018 to looped/cyclic peptides of the N protein of SARS-CoV Urbani [2]: 0.2

ATVLQLPQGTTLPKG
Binding of a rabbit serum to linear peptides of protein N of SARS-CoV Urbani (Rabbit serum linear peptides) [1]: 0.2 | Binding of a rabbit serum to looped/cyclic peptides of protein N of SARS-CoV Urbani (Rabbit serum looped peptides) [1]: 0.3 | Binding of antibody 03-018 to linear peptides of the N protein of SARS-CoV Urbani [2]: 0.1 | Binding of antibody 03-018 to looped/cyclic peptides of the N protein of SARS-CoV Urbani [2]: 0.2

DKDPQFKDNVILLNK
Binding of a rabbit serum to linear peptides of protein N of SARS-CoV Urbani (Rabbit serum linear peptides) [1]: 0.1 | Binding of a rabbit serum to looped/cyclic peptides of protein N of SARS-CoV Urbani (Rabbit serum looped peptides) [1]: 0.5 | Binding of antibody 03-018 to linear peptides of the N protein of SARS-CoV Urbani [2]: 0.1 | Binding of antibody 03-018 to looped/cyclic peptides of the N protein of SARS-CoV Urbani [2]: 0.4

ITTDTGIENATFFIF
Binding of a rabbit serum to linear peptides [1]: 0.1 | Binding of a rabbit serum to looped peptides [1]: 0.6 | Binding of Control Serum Blood-Bank to Looped peptides [4]: 0.6 | Binding of Control serum Blood-bank to linear peptides [4]: 0.4 | Binding of Control serum LUMC to linear peptides [4]: 0.9 | Binding of Control serum LUMC to looped peptides [4]: 0.9 | Binding of serum 1a to linear peptides of protein X1 of SARS-CoV Urbani [3]: 0.8 | Binding of serum 1a to looped/cyclic peptides of protein X1 of SARS-CoV Urbani [3]: 0.7 | Binding of serum 1b to linear peptides of protein X1 of SARS-CoV Urbani [3]: 0.7 | Binding of serum 1b to looped/cyclic peptides of protein X1 of SARS-CoV Urbani [3]: 0.6 | Binding of serum 2 to linear peptides of protein X1 of SARS-CoV Urbani [3]: 0.6 | Binding of serum 2 to looped/cyclic peptides of protein X1 of SARS-CoV Urbani [3]: 0.6 | Binding of serum 6 to linear peptides of protein X1 of SARS-CoV Urbani [3]: 0.5 | Binding of serum 6 to looped/cyclic peptides of protein X1 of SARS-CoV Urbani [3]: 0.5 | Binding of serum 37 to linear peptides of protein X1 of SARS-CoV Urbani [3]: 0.6 | Binding of serum 37 to looped/cyclic peptides of protein X1 of SARS-CoV Urbani [3]: 0.9 | Binding of serum 62 to linear peptides of protein X1 of SARS-CoV Urbani [3]: 0.5 | Binding of serum 62 to looped/cyclic peptides of protein X1 of SARS-CoV Urbani [3]: 0.8 | Binding of serum London to linear peptides of protein X1 of SARS-CoV Urbani [3]: 0.3 | Binding of serum London to looped/cyclic peptides of protein X1 of SARS-CoV Urbani [3]: 0.3 | Binding of serum SARS-green to linear peptides of protein X1 of SARS-CoV Urbani [3]: 0.3 | Binding of serum SARS-green to looped/cyclic peptides of protein X1 of SARS-CoV Urbani [3]: 0.6 | Binding of serum SARS-yellow to linear peptides of protein X1 of SARS-CoV Urbani [3]: 0.5 | Binding of serum SARS-yellow to looped/cyclic peptides of protein X1 of SARS-CoV Urbani [3]: 0.7

TLIVFTSCELYHYQE
Rabbit serum linear peptides [1]: 0.5 | Rabbit serum looped peptides [1]: 0.8 | Binding of Control Serum Blood-Bank to Looped peptides [4]: 0.7 | Binding of Control serum Blood-bank to linear peptides [4]: 0.7 | Binding of Control serum LUMC to linear peptides [4]: 0.8 | Binding of Control serum LUMC to looped peptides [4]: 1.0 | Binding of serum 1a to linear peptides of protein X4 of SARS-CoV Urbani [3]: 0.8 | Binding of serum 1a to looped/cyclic peptides of protein X4 of SARS-CoV Urbani [3]: 0.8 | Binding of serum 1b to linear peptides of protein X4 of SARS-CoV Urbani [3]: 0.8 | Binding of serum 1b to looped/cyclic peptides of protein X4 of SARS-CoV Urbani [3]: 0.8 | Binding of serum 2 to linear peptides of protein X4 of SARS-CoV Urbani [3]: 0.5 | Binding of serum 2 to looped/cyclic peptides of protein X4 of SARS-CoV Urbani [3]: 0.8 | Binding of serum 6 to linear peptides of protein X4 of SARS-CoV Urbani [3]: 0.6 | Binding of serum 6 to looped/cyclic peptides of protein X4 of SARS-CoV Urbani [3]: 0.6 | Binding of serum 37 to linear peptides of protein X4 of SARS-CoV Urbani [3]: 0.9 | Binding of serum 37 to looped/cyclic peptides of protein X4 of SARS-CoV Urbani [3]: 0.9 | Binding of serum 62 to linear peptides of protein X4 of SARS-CoV Urbani [3]: 0.9 | Binding of serum 62 to looped/cyclic peptides of protein X4 of SARS-CoV Urbani [3]: 0.8 | Binding of serum London to linear peptides of protein X4 of SARS-CoV Urbani [3]: 0.8 | Binding of serum London to looped/cyclic peptides of protein X4 of SARS-CoV Urbani [3]: 0.3 | Binding of serum SARS-green to linear peptides of protein X4 of SARS-CoV Urbani [3]: 1.1 | Binding of serum SARS-green to looped/cyclic peptides of protein X4 of SARS-CoV Urbani [3]: 1.0 | Binding of serum SARS-yellow to linear peptides of protein X4 of SARS-CoV Urbani [3]: 0.6 | Binding of serum SARS-yellow to looped/cyclic peptides of protein X4 of SARS-CoV Urbani [3]: 0.9

AFQHQNSKKTTKLVV
Recognition of the peptide by the rabbit serum [1]: recognized | Binding of Control Serum Blood-Bank to Looped peptides [4]: 0.7 | Binding of Control serum Blood-bank to linear peptides [4]: 0.6 | Binding of Control serum LUMC to linear peptides [4]: 0.7 | Binding of Control serum LUMC to looped peptides [4]: 0.6 | Binding of serum 1a to linear peptides of protein X2 [3]: 0.6 | Binding of serum 1a to looped/cyclic peptides of protein X2 of SARS-CoV Urbani [3]: 0.5 | Binding of serum 1b to linear peptides of protein X2 [3]: 0.5 | Binding of serum 1b to looped/cyclic peptides of protein X2 of SARS-CoV Urbani [3]: 0.5 | Binding of serum 2 to linear peptides of protein X2 [3]: 0.6 | Binding of serum 2 to looped/cyclic peptides of protein X2 of SARS-CoV Urbani [3]: 0.4 | Binding of serum 6 to linear peptides of protein X2 [3]: 0.9 | Binding of serum 6 to looped/cyclic peptides of protein X2 of SARS-CoV Urbani [3]: 0.4 | Binding of serum 37 to linear peptides of protein X2 [3]: 0.8 | Binding of serum 37 to looped/cyclic peptides of protein X2 of SARS-CoV Urbani [3]: 0.5 | Binding of serum 62 to linear peptides of protein X2 [3]: 0.4 | Binding of serum 62 to looped/cyclic peptides of protein X2 of SARS-CoV Urbani [3]: 0.6 | Binding of serum London to linear peptides of protein X2 [3]: 0.4 | Binding of serum London to looped/cyclic peptides of protein X2 of SARS-CoV Urbani [3]: 0.2 | Binding of serum SARS-green to linear peptides of protein X2 [3]: 0.2 | Binding of serum SARS-green to looped/cyclic peptides of protein X2 of SARS-CoV Urbani [3]: 0.3 | Binding of serum SARS-yellow to linear peptides of protein X2 [3]: 0.7 | Binding of serum SARS-yellow to looped/cyclic peptides of protein X2 of SARS-CoV Urbani [3]: 0.5
